Measured values as given in PMC3169561, “Restoration of IFNγR Subunit Assembly, IFNγ Signaling and Parasite Clearance in Leishmania donovani Infected Macrophages: Role of Membrane Cholesterol” (PLoS Pathogens, 2011).

Molecular target: T1, IFNγ receptor subunit 1 (IFNγR1) (Mus musculus, UniProt P15261)
T1 construct: gene Ifngr1; synthetic Wt IFNγR1 peptide, CRAC motif, residues 269 to 280 ([…])
Assay: SPR (BIAcore […], L1 chip) of peptide over immobilized phosphatidylcholine/cholesterol liposomes
Assay type: binding

CC(C)CCC[C@@H](C)[C@H]1CC[C@H]2[C@@H]3CC=C4C[C@@H](O)CC[C@]4(C)[C@H]3CC[C@]12C [cholesterol]
Kd: 4.27 nM
